According to publication PMC11757143, “Generation and characterization of OX40-ligand fusion protein that agonizes OX40 on T-Lymphocytes” (Frontiers in Immunology, 2025):

What was measured:
[1] = system: antigen-specific T cell responses of draining lymph node cells; assay: Antigen recall responses of dLN cells from TNP-KLH/CFA-immunized mice (cytokine ELISA, MTT proliferation); format: in vivo, C57BL/6 mice; conditions: 20 µg i.p. on days 1 and 3, TNP-KLH/CFA day 0, dLN day 7, KLH recall 3 days
Excerpt: The following reagents were used for the measurement of cytokines from T cells: anti-IL-2 (JES6-1A12, 503701, BioLegend, San Diego, CA, U.S.A.) capture antibody, biotin-anti-IL-2 (JES6-5H4, 503803, BioLegend) detection antibody, anti-IFN-γ (R4-6A2, 505702, BioLegend) capture antibody, biotin-anti-IFN-γ (XMG1.2, 505804, BioLegend) detection antibody, anti-IL-4 (11B11, 504101, BioLegend) capture antibody, biotin-anti-IL-4 (BVD6-24G2, 504201, BioLegend) detection antibody, anti-IL-17A (TC11-18H10.1, 506901, BioLegend) capture antibody, biotin-anti-IL-17A (TC11-8H4, 507001, BioLegend) detection antibody, HRP streptavidin (405210, BioLegend), and 3,3’,5,5’-tetramethylbenzidine (TMB, 421101, BioLegend). The absorbance was measured at 450 nm or 620 nm using a FilterMax F5 (Molecular Devices, San Jose, CA, U.S.A.).
Groups of C57BL/6 mice from both male and female mice aged between 5 and 15 weeks were immunized subcutaneously at the footpad with 100 µg of 2,4,6-trinitrophenyl-conjugated keyhole limpet hemocyanin (TNP-KLH) emulsified in complete Freund’s adjuvant (CFA) (F5881, Merck) on day 0. Recombinant proteins in PBS were injected intraperitoneally on days 1 and 3. […] Cell viability on day 3 was assessed with a 3-(4,5-dimethylthiazol-2-yl)-2,5-diphenyl-tetrazolium (MTT) (M2128, Merck) assay.

[2] = target: T1, OX40-Fc (Mus musculus, UniProt P47741); set-up: method as in PMID 36450532, PMID 37371066; conditions: previous studies; ref [23], [24]; cited from earlier work
T1 construct: made in house
T1 sequence (P47741 20-211 limits assumed): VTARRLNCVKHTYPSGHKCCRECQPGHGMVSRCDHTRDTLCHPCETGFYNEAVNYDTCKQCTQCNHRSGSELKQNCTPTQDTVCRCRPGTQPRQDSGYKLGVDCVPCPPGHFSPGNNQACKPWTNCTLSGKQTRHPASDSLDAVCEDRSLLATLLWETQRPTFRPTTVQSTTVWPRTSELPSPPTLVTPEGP

Row | Substance | antigen-specific T cell responses (recall IFN-γ, IL-17, IL-4 production and proliferation of dLN cells) [1] | specific interaction with OX40 [2]
1 | Fc-MBL-OX40L: Fusion protein: human IgG1 Fc (hinge, CH2, CH3), PA, MBL collagen-like domain, OX40L THD | failed to effectively stimulate in vivo T cell responses | 
2 | MBL-OX40L: Fusion protein: PA peptide tag, collagen-like domain of mannose-binding lectin, extracellular TNF homology domain of mouse OX40L |  | specifically interact with OX40
